Experimental data published in US8754190B2, “Controlled release from macromolecular conjugates” (Prolynx LLC, priority 2010, dated 2014).

What was measured:
[1] = pH 7.4
Method: Kinetics for release of N-(6-(2,4-dinitrophenyl)aminohexanoyl)-serine from O—(N-(9-fluorenylmethoxycarbonyl-N-phenyl)aminomethyl)-serine in 0.1 M HEPES buffer, 15 mM NaCl, pH 7.40, 37° C. are shown in FIG. 4.

[2] = pH 7.4; remark: listed apart in the source
[3] = Hydrolysis of carbamate in 50% human serum; type: in vitro ADME; details: after 1 week at 37° C.
Excerpt: In general, compared to C—H, a) electron withdrawing groups at the beta position increase the rate; b) alkyl groups at the alpha position increase the rate; and c) aryl moieties at the alpha position decrease the rate.

[4] = Release of Nε-2,4-dinitrophenyl-L-lysine from model linker carbamates (β-eliminative cleavage), HPLC; type: physicochemical; details: after 5 days at 37° C. and pH 7.4; no observable release, below estimated detection limit
Method: A series of model linker scaffolds having a range of functional groups as potential pKa modulators (substituted aromatics, ketones, nitriles, sulfones) were designed, prepared and linked via carbamate bonds to Ne-2,4-dinitrophenyl-L-lysine (Ne-DNP-Lys) for evaluation of release rates. DNP-Lys was chosen as the released moiety as it is water soluble and is a strong chromophore to permit HPLC-UV analysis.
The rates of release of Nε-2,4-dinitrophenyl-L-lysine from these compounds were determined at pH 7.4 or pH 8.3, 37° C., by HPLC analysis. Kinetic analyses of the release reactions were performed by HPLC (C18; linear methanol/water+0.5% HOAc gradient) using a UV/vis monitor at 350 nm. The areas under the Lys(DNP) (“P”) and starting material (“S”) peaks were integrated to determine extent of reaction (“R”) as R=P/(S+P). Reaction rates were calculated from the slope the line obtained by linear regression analysis of a plot of ln(1−R) versus time.

## O=C(CCCCCNc1ccc([N+](=O)[O-])cc1[N+](=O)[O-])N[C@@H](COCN(C(=O)OCC1c2ccccc2-c2ccccc21)c1ccccc1)C(=O)O [Example 11B]
[1]
  T1/2 of release of N-(6-(2,4-dinitrophenyl)aminohexanoyl)-serine: 16.7 days

## O=C(O)[C@H](CSCN(C(=O)OCC1c2ccccc2-c2ccccc21)c1ccccc1)Nc1ccc([N+](=O)[O-])cc1[N+](=O)[O-] [Example 11C, S—(N-(9-Fluorenylmethoxycarbonyl-N-Phenylamino)Methyl)N-(2,4-Dinitrophenyl)-Cysteine]
[2]
  T1/2 of release of N-(2,4-dinitrophenyl)-cysteine: 4.17 days

## O=C(N[C@@H](CCCCNc1ccc([N+](=O)[O-])cc1[N+](=O)[O-])C(=O)O)OCc1ccccc1 [O-benzyl-N—(Nε-2,4-dinitrophenyl-L-lysine)-carbamate]
[3]
  hydrolysis in 50% human serum: no detectable hydrolysis
[4]
  release of Nε-2,4-dinitrophenyl-L-lysine (cleavage): < 0.25%
